The results in this text go back to patent publication US20170044107A1, “Inhibitors of JMJD2C as Anticancer Agents” (The J. David Gladstone Institutes, priority 2014, published 2017).

Holding throughout (format): cell-based
Assay [1] deals with PC3 androgen-independent prostate cancer cells. Kind of assay: CellTiter-Glo Luminescent Cell Viability Assay, PC3 cells. As to conditions: 48 hours treatment, % of survival normalized to DMSO control; for viability at 2 µM: Homo sapiens, PC-3, compound at 2 μM. As to the method:
(§1) Cell viability assays were performed on three representative prostate cancer cell lines (i.e., CWR22Rvl, PC3 and DU145) to determine the effect of treatment with a series of 8-hydroxyquinoline derivatives.
(§2) Cell viability was assessed 48 hours after compound treatment with the CellTiter-Glo® Luminescent Cell Viability Assay (Promega), according to the manufacturer's protocol. Briefly, 5000 cells were plated into 96-well cell culture plates in DMEM supplemented with 10% FBS. After overnight incubation, compounds at indicated concentrations were added and the treatment was maintained for two days. At the end of compound treatment, 5.0 μL of CellTiter-Glo® Reagent was added to each well. Plates were returned to the incubator for 2 hours. Plates were then removed from the incubator and luminescence was measured in a standard luminescence plate reader. The luminescence signal was then used to calculate % of survival normalized to DMSO control treatment.

The test system of assay [2] is DU145 androgen-independent prostate cancer cells. The experiment in a line: CellTiter-Glo Luminescent Cell Viability Assay, DU145 cells. The conditions noted are these: 48 hours treatment, % of survival normalized to DMSO control; for viability at 2 µM: Homo sapiens, DU-145, compound at 2 μM. On the procedure:
as §1, §2

For assay [3], the system named is CWR22Rv1 androgen-independent prostate cancer cells. Kind of assay: CellTiter-Glo Luminescent Cell Viability Assay, CWR22Rv1 cells. The conditions noted are these: 48 hours treatment, % of survival normalized to DMSO control; for viability at 10 µM: CWR22Rv1, compound at 10 μM. On the procedure:
as §1, §2

Structures can show the parent of a compound that is named as a salt.

As to `CC(C)C(=O)NC(c1ccco1)c1ccc2cccnc2c1O` (stereo not drawn) [SD70, N-(furan-2-yl(8-hydroxyquinolin-7-yl)methyl)isobutyramide], the figures for the viability at 2 µM in assay [1] and in assay [2] were 14% and 26%, respectively. In assay [3], the viability at 10 µM turned out to be 9%.

For `CCC(=O)NC(c1ccco1)c1cc(Cl)c2cccnc2c1O` (stereo not drawn) [SD70-1, N-((5-chloro-8-hydroxyquinolin-7-yl)(furan-2-yl)methyl)propionamide], the viability at 2 µM in assay [1] came to 47%; in assay [2] it was 87%. Also, the viability at 10 µM in assay [3] was determined as 93%.

Consider `CC(C)C(=O)NC(c1ccco1)c1cc(Cl)c2cccnc2c1O` (stereo not drawn) [SD70-2, N-((5-chloro-8-hydroxyquinolin-7-yl)(furan-2-yl)methyl)isobutyramide], for which the values for the viability at 2 µM in assay [1] and in assay [2] were 9% and 32%, respectively. The viability at 10 µM in assay [3] is 100%.

Turning to `CC(=O)NC(c1ccco1)c1cc(Cl)c2cccnc2c1O` (stereo not drawn) [SD70-3, N-((5-chloro-8-hydroxyquinolin-7-yl)(furan-2-yl)methyl)acetamide], the viability at 2 µM in assay [1] came out at 88%; in assay [2], 110%. In assay [3], the viability at 10 µM was determined as 110%.

With `CCCC(=O)NC(c1ccco1)c1cc(Cl)c2cccnc2c1O` (stereo not drawn) [SD70-4, N-((5-chloro-8-hydroxyquinolin-7-yl)(furan-2-yl)methyl)butyramide], the viability at 2 µM in assay [1] was found to be 7%; in assay [2], 29%. The viability at 10 µM in assay [3] was 110%.

In the case of `O=C(NC(c1ccco1)c1cc(Cl)c2cccnc2c1O)c1cccnc1` (stereo not drawn) [SD70-5, N-((5-chloro-8-hydroxyquinolin-7-yl)(furan-2-yl)methyl)nicotinamide], the viability at 2 µM in assay [1] was found to be 23%; in assay [2], 31%. The viability at 10 µM in assay [3] was 94%.

With `COc1ccc(C(=O)NC(c2ccco2)c2cc(Cl)c3cccnc3c2O)cc1` (stereo not drawn) [SD70-6, N-((5-chloro-8-hydroxyquinolin-7-yl)(furan-2-yl)methyl)-4-methoxybenzamide], the viability at 2 µM turned out to be 24% in assay [1] and 50% in assay [2]. In addition, the viability at 10 µM in assay [3] was 21%.

For `O=C(COc1ccccc1)NC(c1ccco1)c1cc(Cl)c2cccnc2c1O` (stereo not drawn) [SD70-7, N-((5-chloro-8-hydroxyquinolin-7-yl)(furan-2-yl)methyl)-2-phenoxyacetamide], the viability at 2 µM in assay [1] and in assay [2] was 21% in each case. Further, the viability at 10 µM in assay [3] worked out at 28%.

With `CCC(=O)NC(c1ccccc1OC)c1cc(Cl)c2cccnc2c1O` (stereo not drawn) [SD70-8, N-((5-chloro-8-hydroxyquinolin-7-yl)(2-methoxyphenyl)methyl)propionamide], the viability at 2 µM in assay [1] came to 61%; in assay [2] it was 42%. Besides, the viability at 10 µM in assay [3] worked out at 10%.

Consider `CCC(=O)NC(c1ccc(OC)c(OC)c1)c1cc(Cl)c2cccnc2c1O` (stereo not drawn) [SD70-9, N-((5-chloro-8-hydroxyquinolin-7-yl)(3,4-dimethoxyphenyl)methyl)propionamide], for which the figures for the viability at 2 µM in assay [1] and in assay [2] were 21% and 10%, respectively. Moreover, the viability at 10 µM in assay [3] turned out to be 18%.

For the molecule `CCC(=O)NC(c1ccco1)c1cc([N+](=O)[O-])c2cccnc2c1O` (stereo not drawn) [SD70-10, N-(furan-2-yl(8-hydroxy-5-nitroquinolin-7-yl)methyl)propionamide], the viability at 2 µM in assay [1] came out at 93%; in assay [2], 100%. In assay [3], the viability at 10 µM was determined as 110%.

Regarding `CCC(=O)NC(c1ccco1)c1ccc2cccnc2c1O` (stereo not drawn) [SD70-11, N-(furan-2-yl(8-hydroxyquinolin-7-yl)methyl)propionamide], the results for the viability at 2 µM in assay [1] and in assay [2] were 79% and 120%, respectively. Besides, the viability at 10 µM in assay [3] came out at 16%.

`Oc1ccc(CCl)c2cccnc12` [SD70-15, 5-(chloromethyl)quinolin-8-ol hydrochloride]: the viability at 2 µM turned out to be 96% in assay [1] and 100% in assay [2]. For the same molecule, in assay [3], the viability at 10 µM came out at 91%.

Consider `Oc1ccc(COCc2ccccc2)c2cccnc12` [SD70-16, 5-(benzyloxymethyl)quinolin-8-ol], for which the viability at 2 µM in assay [1] was determined as 14%; in assay [2], 19%. Moreover, the viability at 10 µM in assay [3] is 20%.

`Oc1ccc(CNCCN2CCOCC2)c2cccnc12` [SD70-17, 5-((2-morpholinoethylamino)methyl)quinolin-8-ol]: the results for the viability at 2 µM in assay [1] and in assay [2] were 98% and 100%, respectively. Also, the viability at 10 µM in assay [3] was found to be 7%.

Turning to `Oc1c(CN2CCN(c3ccccn3)CC2)ccc2cccnc12` [SD70-18, 7-((4-(pyridin-2-yl)piperazin-1-yl)methyl)quinolin-8-ol], the viability at 2 µM in assay [1] worked out at 125%; in assay [2], 110%. The viability at 10 µM in assay [3] was determined as 27%.

`Oc1c(CNCCN2CCOCC2)ccc2cccnc12` [SD70-19, 7-((2-morpholinoethylamino)methyl)quinolin-8-ol]: the viability at 2 µM is 98% in assay [1] and 94% in assay [2]. The viability at 10 µM in assay [3] is 107%.

`Oc1c(CN2CCCCC2)ccc2cccnc12` [SD70-20, 7-(piperidin-1-ylmethyl)quinolin-8-ol]: the values for the viability at 2 µM in assay [1] and in assay [2] were 98% and 88%, respectively. The viability at 10 µM in assay [3] is 99%.

With `CC(C)CCNCc1ccc2cccnc2c1O` [SD70-21, 7-((isopentylamino)methyl)quinolin-8-ol], the viability at 2 µM in assay [1] amounted to 93%; in assay [2], 100%. The viability at 10 µM in assay [3] stood at 93%.

On to `COc1c(C(NC(=O)C(C)C)c2ccco2)ccc2cccnc12` (stereo not drawn) [SD70-23, N-(furan-2-yl(8-methoxyquinolin-7-yl)methyl)isobutyramide], for which, in assay [3], the viability at 10 µM was 96%.

For the molecule `COc1ccc(C(NC(=O)C(C)C)c2ccc3cccnc3c2O)cc1OC` (stereo not drawn) [SD70-24, N-((3,4-dimethoxyphenyl)(8-hydroxyquinolin-7-yl)methyl)isobutyramide], the viability at 10 µM in assay [3] stood at 12%.

As for `CC(C)C(=O)NC(c1ccc([N+](=O)[O-])cc1)c1ccc2cccnc2c1O` (stereo not drawn) [SD70-25, N-((8-hydroxyquinolin-7-yl)(4-nitrophenyl)methyl)isobutyramide], in assay [3], the viability at 10 µM was 16%.

As for “N-((8-hydroxyquinolin-7-yl)(4-methoxyphenyl)methyl)isobutyramide isobutyramide [SD70-22]”, the “% PC3 Survival (Compound at 2 μM)” value in assay [1] came to 13%. Besides, in assay [2], the “% DU145 Survival (Compound at 2 μM)” value worked out at 21%. The “% CWR22Rv1 Survival (Compound at 10 μM)” value in assay [3] is recorded as 18%.
